In ChEMBL document CHEMBL3259787, “Discovery of two aminoglycoside antibiotics as inhibitors targeting the menin-mixed lineage leukaemia interface” (Bioorg Med Chem Lett, 2014):
Calls of active or inactive are those of the source. No cut-off for these calls is given here.

Columns and labels:
[1] = biological target: T1, Menin (Homo sapiens) (UniProt O00255); experiment: (§1) Binding affinity to menin (unknown origin) by isothermal titration calorimetry analysis
T1 sequence (whole entry): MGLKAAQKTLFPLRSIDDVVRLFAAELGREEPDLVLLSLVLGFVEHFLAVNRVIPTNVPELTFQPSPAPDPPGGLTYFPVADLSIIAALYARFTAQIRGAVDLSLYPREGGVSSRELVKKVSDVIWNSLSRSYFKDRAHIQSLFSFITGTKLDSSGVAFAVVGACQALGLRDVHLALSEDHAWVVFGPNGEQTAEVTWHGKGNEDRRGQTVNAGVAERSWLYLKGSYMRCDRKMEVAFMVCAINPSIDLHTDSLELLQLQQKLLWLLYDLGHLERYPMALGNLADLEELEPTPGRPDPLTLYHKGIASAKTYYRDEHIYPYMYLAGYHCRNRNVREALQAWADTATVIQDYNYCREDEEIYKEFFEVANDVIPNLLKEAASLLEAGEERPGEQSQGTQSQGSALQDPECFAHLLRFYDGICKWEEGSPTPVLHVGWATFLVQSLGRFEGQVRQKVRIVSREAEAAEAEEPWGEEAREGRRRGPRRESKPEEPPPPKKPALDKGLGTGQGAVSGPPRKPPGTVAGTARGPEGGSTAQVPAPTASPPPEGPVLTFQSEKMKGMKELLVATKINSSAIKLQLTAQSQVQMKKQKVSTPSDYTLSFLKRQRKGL

[2] = Inhibition of N-terminal FITC-labeled MBM1 interaction to menin (unknown origin) after 1 hr by fluorescence polarization assay; set-up: species or system Homo sapiens
[3] = biological target: T1, Menin (Homo sapiens); experiment: Binding affinity to menin (unknown origin) assessed as thermal stability at 200 uM by differential scanning fluorimetry (reference value: 40.46 degC)
[4] = biological target: T1, Menin (Homo sapiens); experiment: Binding affinity to menin (unknown origin) assessed as thermal stability at 50 uM by differential scanning fluorimetry (reference value: 40.46 degC)
[5] = biological target: T1, Menin (Homo sapiens); experiment: Binding affinity to menin (unknown origin) assessed as thermal stability at 400 uM by differential scanning fluorimetry (reference value: 40.46 degC)
[6] = biological target: T2, Menin (Homo sapiens, UniProt O00255); experiment: as §1
T2 sequence (O00255 whole entry): T1 sequence (whole entry)

| SMILES | Activity [1] | Ki [2] [µM] | Tm [3] [°C] | Tm [4] [°C] | Tm [5] [°C] | Kd [6] [µM] |
| --- | --- | --- | --- | --- | --- | --- |
| NC[C@H]1O[C@H](O[C@H]2[C@H](O)[C@@H](O[C@H]3O[C@H](CO)[C@@H](O)[C@H](N)[C@H]3O)[C@H](N)C[C@@H]2N)[C@H](N)C[C@@H]1O [TOBRAMYCIN] | inactive | 59.9 | 42.6 | 41.4 | 43.4 |  |
| NC[C@@H]1O[C@H](O[C@H]2[C@@H](O)[C@H](O[C@@H]3[C@@H](O)[C@H](N)C[C@H](N)[C@H]3O[C@H]3O[C@H](CN)[C@@H](O)[C@H](O)[C@H]3N)O[C@@H]2CO)[C@H](N)[C@@H](O)[C@@H]1O [FRAMYCETIN] |  | 18.8 | 43.8 | 42.5 | 45.2 | 15.6 |
